# Experiments:
# [1] = biological target: T1, Cytochrome P450 11B1, mitochondrial (Homo sapiens, UniProt P15538)
# T1 sequence (P15538 whole entry): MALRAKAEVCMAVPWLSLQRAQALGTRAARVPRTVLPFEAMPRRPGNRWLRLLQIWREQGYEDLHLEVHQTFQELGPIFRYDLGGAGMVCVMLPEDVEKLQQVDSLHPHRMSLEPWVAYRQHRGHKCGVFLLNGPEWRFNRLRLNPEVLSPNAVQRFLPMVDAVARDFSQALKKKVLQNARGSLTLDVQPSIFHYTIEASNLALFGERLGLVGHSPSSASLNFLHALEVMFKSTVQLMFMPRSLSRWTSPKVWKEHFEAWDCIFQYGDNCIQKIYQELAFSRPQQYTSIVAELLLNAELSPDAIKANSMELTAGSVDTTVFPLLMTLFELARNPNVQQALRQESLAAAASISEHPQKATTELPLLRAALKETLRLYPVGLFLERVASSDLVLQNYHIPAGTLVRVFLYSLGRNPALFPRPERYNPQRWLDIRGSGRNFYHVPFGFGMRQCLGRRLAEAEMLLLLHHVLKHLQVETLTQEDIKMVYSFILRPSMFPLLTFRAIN
# [2] = organism: Homo sapiens; experiment: Selectivity ratio, IC50 for human CYP11B1 to IC50 for human CYP11B2
# [3] = biological target: T2, Cytochrome P450 11B2, mitochondrial (Homo sapiens, UniProt P19099); experiment: Inhibition of human CYP11B2 expressed in hamster V79 MZh cells at 500 nM; type: cell-based; details: V79MZh
# T2 sequence (P19099 whole entry): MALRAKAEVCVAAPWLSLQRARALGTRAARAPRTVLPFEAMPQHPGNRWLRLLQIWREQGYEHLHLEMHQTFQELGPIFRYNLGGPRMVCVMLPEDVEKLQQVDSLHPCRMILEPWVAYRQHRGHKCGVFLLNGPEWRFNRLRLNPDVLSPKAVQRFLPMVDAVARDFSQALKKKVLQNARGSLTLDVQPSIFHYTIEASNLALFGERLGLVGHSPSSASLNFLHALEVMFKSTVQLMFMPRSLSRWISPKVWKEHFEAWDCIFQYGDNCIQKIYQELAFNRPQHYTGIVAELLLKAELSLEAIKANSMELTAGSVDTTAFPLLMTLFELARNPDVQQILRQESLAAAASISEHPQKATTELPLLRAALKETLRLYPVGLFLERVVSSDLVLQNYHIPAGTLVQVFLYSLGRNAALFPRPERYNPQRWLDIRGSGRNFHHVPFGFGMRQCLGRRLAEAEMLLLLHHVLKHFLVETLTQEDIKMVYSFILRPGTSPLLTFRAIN
# [4] = biological target: T2, Cytochrome P450 11B2, mitochondrial
# [5] = biological target: T3, CYP19 (aromatase) (Homo sapiens, UniProt P11511); experiment: Inhibition of human placental CYP19 at 500 nM; type: functional
# T3 sequence (P11511 whole entry): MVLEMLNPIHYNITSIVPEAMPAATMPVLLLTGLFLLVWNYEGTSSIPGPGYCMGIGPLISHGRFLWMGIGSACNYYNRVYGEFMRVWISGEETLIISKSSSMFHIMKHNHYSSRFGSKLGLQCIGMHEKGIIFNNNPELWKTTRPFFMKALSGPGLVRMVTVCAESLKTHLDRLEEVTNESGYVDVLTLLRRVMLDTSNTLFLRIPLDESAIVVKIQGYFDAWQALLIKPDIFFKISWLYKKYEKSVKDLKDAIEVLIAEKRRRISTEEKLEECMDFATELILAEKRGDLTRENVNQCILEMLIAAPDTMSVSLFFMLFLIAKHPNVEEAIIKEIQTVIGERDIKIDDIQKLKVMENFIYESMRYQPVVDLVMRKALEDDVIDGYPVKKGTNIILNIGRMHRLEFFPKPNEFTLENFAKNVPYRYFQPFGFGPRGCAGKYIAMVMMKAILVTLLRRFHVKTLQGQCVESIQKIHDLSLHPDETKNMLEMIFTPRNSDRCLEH
# [6] = biological target: T4, CYP1A2 (Homo sapiens, UniProt P05177); experiment: Inhibition of human recombinant CYP1A2 expressed in baculovirus-infected insect microsomes at 2 uM; type: ADME, Microsome
# T4 sequence (P05177 whole entry): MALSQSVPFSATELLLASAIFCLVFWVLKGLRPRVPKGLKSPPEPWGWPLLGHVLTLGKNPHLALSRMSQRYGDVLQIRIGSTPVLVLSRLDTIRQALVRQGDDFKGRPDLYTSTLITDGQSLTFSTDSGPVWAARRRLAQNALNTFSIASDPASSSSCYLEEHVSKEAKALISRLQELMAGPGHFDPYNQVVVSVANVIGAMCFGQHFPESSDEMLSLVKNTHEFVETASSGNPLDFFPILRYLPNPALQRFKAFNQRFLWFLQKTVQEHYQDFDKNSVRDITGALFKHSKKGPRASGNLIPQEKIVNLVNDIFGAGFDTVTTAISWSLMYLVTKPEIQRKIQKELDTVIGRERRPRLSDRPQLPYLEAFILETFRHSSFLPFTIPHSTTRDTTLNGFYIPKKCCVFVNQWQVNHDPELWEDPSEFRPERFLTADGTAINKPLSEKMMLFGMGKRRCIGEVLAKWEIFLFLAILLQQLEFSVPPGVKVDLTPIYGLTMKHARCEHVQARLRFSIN
# [7] = biological target: T5, Cytochrome P450 1A2 (Homo sapiens, UniProt P05177)
# T5 sequence (P05177 whole entry): T4 sequence (P05177 whole entry)
# [8] = biological target: T6, CYP17 (Homo sapiens, UniProt P05093); experiment: in vitro; details: human CYP17 expressed in Escherichia coli
# T6 sequence (P05093 whole entry): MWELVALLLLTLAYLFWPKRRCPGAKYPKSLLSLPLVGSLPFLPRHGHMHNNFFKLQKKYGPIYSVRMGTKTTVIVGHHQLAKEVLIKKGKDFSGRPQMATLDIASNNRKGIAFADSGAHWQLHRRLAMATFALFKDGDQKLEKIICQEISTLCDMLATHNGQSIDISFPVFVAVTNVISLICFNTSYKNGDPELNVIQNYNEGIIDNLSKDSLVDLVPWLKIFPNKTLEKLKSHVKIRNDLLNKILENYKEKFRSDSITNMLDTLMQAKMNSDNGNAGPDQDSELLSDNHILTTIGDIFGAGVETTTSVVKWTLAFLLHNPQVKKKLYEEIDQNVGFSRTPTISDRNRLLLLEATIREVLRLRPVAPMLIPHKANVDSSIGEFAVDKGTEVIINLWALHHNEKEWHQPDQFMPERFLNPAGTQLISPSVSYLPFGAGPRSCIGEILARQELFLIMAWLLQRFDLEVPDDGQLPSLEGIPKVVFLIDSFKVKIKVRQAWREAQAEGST
# Description: Inhibition of human CYP17 expressed in Escherichia coli at 2.5 uM
# [9] = biological target: T7, Aromatase (Homo sapiens, UniProt P11511); experiment: Inhibition of human placental CYP19; type: functional
# T7 sequence (P11511 whole entry): T3 sequence (P11511 whole entry)
# [10] = AUC (0 to infinity) in Wistar rat at 5 mg/kg, po by cassette dosing; type: ADME, organism-based; set-up: time infinity, dose 5 mg/kg, route oral; details: plasma
# [11] = Cmax in Wistar rat at 5 mg/kg, po by cassette dosing; type: ADME, organism-based; set-up: dose 5 mg/kg, route oral; details: in vivo
# [12] = Terminal half life in Wistar rat at 5 mg/kg, po by cassette dosing; type: ADME, organism-based; set-up: dose 5 mg/kg, route oral; details: in vivo, read-out: beta t1/2 (converted)
SMILES,IC50 [1] [nM],Ratio IC50 [2],inhibition at 0.5 µM [3] [%],IC50 [4] [nM],inhibition at 0.5 µM [5] [%],inhibition at 2 µM [6] [%],IC50 [7] [nM],inhibition at 2.5 µM [8] [%],other results
S=C1CCc2cc(-c3cccnc3)cc(Cl)c2N1,769,183,97,4.2,,,,,
O=C1CCc2cc(-c3cccnc3)cc(Cl)c2N1,,,,,17,14,30600,7,
COc1cncc(-c2ccc3c(c2)CCC(=O)N3C)c1,,,,,5,20,16500,< 5,
O=C1CSc2cc(-c3cccnc3)ccc2N1,525,,,12,,,,,
COc1ccc2cc(-c3cccnc3)ccc2c1,,,,,,,,72,IC50 [9]: 600 nM
c1cncc(-c2ccc3c(c2)CCCC3)c1,1980,68,82,29,,,,,
N#Cc1ccc(C2CCCc3cncn32)cc1 (configuration not stated) [FADROZOLE],,,,,,,,,AUC(0-inf) [10]: 3210 ng·h/mL; Cmax [11]: 471 ng/mL; half-life [12]: 3.2 h

# Now from value to compound, other results behind:
IC50 [1] [nM],Ratio IC50 [2],inhibition at 0.5 µM [3] [%],IC50 [4] [nM],inhibition at 0.5 µM [5] [%],inhibition at 2 µM [6] [%],IC50 [7] [nM],inhibition at 2.5 µM [8] [%],SMILES,other results
4920,112,86,44,23,74,600,49,OC1CCc2cc(-c3cccnc3)ccc2C1 (configuration not stated),
,,,,,25,,,O=C1Cc2cc(-c3cccnc3)ccc2N1,
290,181,97,1.6,< 5,90,180,74,N#CC1=Cc2ccc(-c3cccnc3)cc2CC1,
,,,,,,,73,N#Cc1ccc2cc(-c3cccnc3)ccc2c1,IC50 [9]: > 36000 nM
